Assay results: US20250185696A1, “NOVEL MENAQUINONE-N (VITAMIN-K2-7) SUPPLEMENTATION FOR LIVESTOCK AND POULTRY” (SYNERGIA LIFE SCIENCES PVT LTD., priority 2022, published 2025)
Where “and” joins values, the source holds several entries; their conditions need not be identical. Identical values can stand only once.

Tests used:
Birds = assay: Comparative study of control and treated group (Table 4): mortality, weight, FCR; format: in vivo; conditions: Treated group, 2000 birds, K2 supplementation 15 g of 2000 ppm
Experimental: Feed conversion ratio was calculated by taking the total amount of feed consumed by the bird and dividing it by the amount of weight gained.

[1] = test system: Vencobb 400 breed of broiler chicken; assay: Pilot study in chicks: mortality; format: in vivo; conditions: for Cumulative Mortality: Treatment group (N=2839)
Experimental: (§1) A pilot study in 5605 chicks to evaluate the role of Menaquinone-n in bird weight increase, FCR and cost efficiency. The chicks were divided into Treatment group (N=2839) and Control group (N=2766). Menaquinone-7 (provided by Synergia Life Sciences as a 2000 ppm water dispersible powder) was administered to the treatment group for 30 days as per dosage outlined in Table 1. The birds were acclimatized for initial 4 days. Menaquinone-7 in divided doses was started on day 5 till day 30 and they were vaccinated on day 6.
(§2) 5605 day old chicks were selected for the study. They were divided into Treatment group consisting of 2839 chicks, while the remaining 2766 were included in the Control group. The chicks were acclimatized for initial 4 days.
(§3) Menaquinone-7 (provided by Synergia Life Sciences as a 2000 ppm water dispersible powder) was administered daily […] to the treatment group in daily dosages as outlined in Table 1. Menaquinone-7 in divided doses was started on day 5 till day 30 and the chicks were vaccinated on day 6. The body weight of the chicks was determined, and mortality rate observed on Day 11, Day 16, Day 22 and Day 28.
(§4) A poultry farm with two open shades was selected for the study. Vencobb 400 breed of broiler chicken were selected for the study. Vencobb 400 breed was selected because at breeder level it is an early maturing bird with early peak, sustained production and better feed efficiency. Vencobb 400 is known for its proven adaptability to varied climatic conditions and husbandry practices.
(§5) The chicks were housed in poultry sheds with tin rooting and open shade sides. Water was fed ad libitum through bell water feeders. The litter consisted of rice husk before housing the birds the cages were sanitized with hypo chloride, The chicks were provided with feed supplied from Godrej Tyson Foods, ad libitum.
(§6) Menaquinone 7 supplementation was in a drinking water as in Table 1. Water was made up to the required level as required daily.

[2] = test system: Vencobb 400 breed of broiler chicken; assay: Pilot study in chicks: cage side observations; format: in vivo
Experimental: Cage side observations like daily life behavior patterns, odor of litter etc. were recorded.

[3] = test system: Vencobb 400 breed of broiler chicken; assay: Pilot study in chicks: body weight; format: in vivo; conditions: Treatment group
Experimental: as §1, §2, §3, §4, §5, §6
Body weight was estimated by catching 5 birds in each group and determining the total weight and reporting the average at the intervals recorded in Table 2. At the end of treatment, after catching the total catching weight was recorded and the average weight determined.

[4] = regular MK-7 intake; cited from earlier work

SMILES: CC(C)=CCC/C(C)=C/CC/C(C)=C/CC/C(C)=C/CC/C(C)=C/CC/C(C)=C/CC/C(C)=C/CC1=C(C)C(=O)c2ccccc2C1=O [Menaquinone-7]
- Avg wt./bird (Birds): 2.1560 kg
- FCR (Birds): 0.728
- Mortality (Birds): 1.8%
- Cumulative Mortality ([1]; Day 0): 0
- Cumulative Mortality ([1]; Day 5 (start of dosing)): 30
- Cumulative Mortality ([1]; Day 11): 61
- Cumulative Mortality ([1]; Day 16): 87
- Cumulative Mortality ([1]; Day 22): 95
- Cumulative Mortality ([1]; Day 28): 100
- Overall reduction in mortality rate ([1]; Treatment group versus control group, end of 28th day): over 4%
- Mortality rate/day ([1]; Treatment group, Day 5 (start of dosing)): 7.5 per day
- Mortality rate/day ([1]; Treatment group, Day 11): 2.8 per day
- Mortality rate/day ([1]; Treatment group, Day 16): 5.2 per day
- Mortality rate/day ([1]; Treatment group, Day 22): 1.3 per day
- Mortality rate/day ([1]; Treatment group, Day 28): 0.8 per day
- Mortality % (overall mortality) ([1]; Treatment group, end of 28th day): 3.52%
- Ammonia odor in the litter (cage side observation) ([2]; Treatment group as compared to the control group): reduced ammonia odor
- Stress due to heat, vaccination and crowding (cage side observation) ([2]; Treatment group in comparison to the control group): appeared comfortable
- Average weight (kg) per chick ([3]; Day 0 (before dosing; dosing day 5 to day 30 in drinking water)): 0.05 kg
- Average weight (kg) per chick ([3]; Day 5 (start of dosing)): 0.05 kg
- Average weight (kg) per chick ([3]; Day 11): 0.622 kg
- Average weight (kg) per chick ([3]; Day 16): 0.966 kg
- Average weight (kg) per chick ([3]; Day 22): 1.36 kg
- Average weight (kg) per chick ([3]; Day 28): 2 kg and 2.0 kg
- Blood levels, times higher than when not regularly taken [4]: 7-8 times
